Data from ChEMBL document CHEMBL1201862, “PubChem BioAssay data set” (2004).
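Step 1: Grow cells in 96-well plates. Step 2: Expose to compound for 48 hours at 5 concentrations. Step 3: Interpolate endpoints linearly; if unreached, use highest concentration. The concentration for 50% growth inhibition is given as GI50.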 The source made the active and inactive calls. No stated cut-off is given here; in the data, active = GI50 up to about 1.1 µM and inactive = higher.

Columns and labels:
Experiment in all cases: growth of human tumour cells (NCI), 48 h
[1] = system: A498
[2] = system: COLO 205
[3] = system: HOP-62
[4] = system: IGROV-1
[5] = system: K562
[6] = system: M14
[7] = system: NCI-H460
[8] = system: NCI-H522
[9] = system: OVCAR-3
[10] = system: OVCAR-5
[11] = system: RPMI-8226
[12] = system: SK-MEL-2
[13] = system: SN12C
[14] = system: SNB-75
[15] = system: U-251
[16] = system: SW-620

Measured: GI50

O=[N+]([O-])c1ccc(/C=N/C23CC4CC(CC(C4)C2)C3)cc1
inactive: [1] > 100 µM | [2] > 100 µM | [3] > 100 µM | [4] > 100 µM | [5] 54.7 µM | [6] > 100 µM | [7] > 100 µM | [8] > 100 µM | [9] > 100 µM | [10] > 100 µM | [11] > 100 µM | [12] > 100 µM | [13] > 100 µM | [14] > 100 µM | [15] > 100 µM

CN(C)/C=C/C(=O)c1cccc(C(=O)/C=C/N(C)C)n1
inactive: [1] > 100 µM | [2] > 100 µM | [3] > 100 µM | [4] > 100 µM | [5] > 100 µM | [6] > 100 µM | [7] > 100 µM | [8] > 100 µM | [9] > 100 µM | [10] > 100 µM | [11] > 100 µM | [12] > 100 µM | [13] > 100 µM | [14] > 100 µM | [16] > 100 µM | [15] > 100 µM

O=C1c2c(c3c4ccccc4n(CC4CO4)c3c3[nH]c4ccccc4c23)C(=O)N1Cc1ccccc1 (stereo unspecified)
inactive: [1] 31.9 µM | [3] > 100 µM | [4] 67 µM | [5] 95.7 µM | [6] > 100 µM | [7] 89.5 µM | [8] 25.4 µM | [9] > 100 µM | [10] > 100 µM | [11] > 100 µM | [12] > 100 µM | [13] > 100 µM | [14] > 10 µM | [16] 77.6 µM | [15] > 100 µM

O=c1c2ccccc2nc(-c2cccc(Cl)c2)n1NCC1(O)OCC(O)C(O)C1O (stereo unspecified)
inactive: [1] > 100 µM | [2] > 100 µM | [5] 45.7 µM | [6] > 100 µM | [7] > 100 µM | [8] 37.8 µM | [9] > 100 µM | [10] > 100 µM | [11] 41.1 µM | [12] > 100 µM | [13] > 100 µM | [14] > 10 µM | [16] > 100 µM | [15] > 100 µM

CN1C(=O)N(c2nc3ccccc3[nH]2)C(C)(C)C1=O
inactive: [1] > 100 µM | [2] > 100 µM | [3] > 100 µM | [4] > 100 µM | [5] > 100 µM | [6] > 100 µM | [8] > 100 µM | [9] > 100 µM | [11] > 100 µM | [12] > 100 µM | [13] > 100 µM | [14] > 100 µM | [16] > 100 µM | [15] > 100 µM

CCCOP(=S)(N1CC1)N1CC1
inactive: [1] > 100 µM | [2] > 100 µM | [3] > 100 µM | [4] > 100 µM | [5] > 100 µM | [6] > 100 µM | [7] > 100 µM | [8] > 100 µM | [9] > 100 µM | [10] > 100 µM | [11] > 100 µM | [12] > 100 µM | [13] > 100 µM | [14] 48.3 µM | [16] > 100 µM | [15] > 100 µM

ClC/C=C/COC1CCCCO1 (stereo unspecified)
inactive: [1] > 100 µM | [2] 94.6 µM | [3] > 100 µM | [4] > 100 µM | [5] > 100 µM | [6] > 100 µM | [7] > 100 µM | [8] 2.12 µM | [9] > 100 µM | [10] > 100 µM | [11] 54.2 µM | [12] > 100 µM | [13] > 100 µM | [14] > 100 µM | [16] > 100 µM | [15] 65.9 µM

Cc1cc2c(cc1C)[n+]([O-])c(C(=O)C/C(=N/NC(=S)NN)C(=O)Nc1cccc(C(F)(F)F)c1)c[n+]2[O-]
inactive: [1] > 100 µM | [2] > 100 µM | [3] > 100 µM | [4] > 100 µM | [5] > 100 µM | [6] > 100 µM | [7] > 100 µM | [8] > 100 µM | [9] > 100 µM | [10] > 100 µM | [11] > 100 µM | [12] > 100 µM | [13] > 100 µM | [14] > 100 µM | [16] > 100 µM | [15] > 100 µM

OCc1cc2c(cn1)[nH]c1ccc(NCc3ccccc3)cc12
inactive: [1] 17.8 µM | [2] 17.7 µM | [3] 51.9 µM | [4] 43 µM | [5] 23 µM | [6] 16.4 µM | [7] 24.4 µM | [8] 15.7 µM | [9] 19.4 µM | [10] 27.7 µM | [11] 11 µM | [12] 40.2 µM | [13] 34.9 µM | [14] 25.5 µM | [16] 27.4 µM | [15] 38.9 µM

COc1ccc(Cc2c3cc(O)c([O-])cc3cc[n+]2C)cc1
inactive: [1] 42 µM | [2] 39.1 µM | [3] 10.3 µM | [4] 30.3 µM | [5] 6.61 µM | [6] 11.4 µM | [7] 5.68 µM | [8] 23.3 µM | [9] 27.7 µM | [10] 33.7 µM | [11] 28.4 µM | [12] 65.9 µM | [13] 21 µM | [14] 48.2 µM | [16] 36.1 µM | [15] 12.7 µM

O=C1OC(c2ccccc2)=N/C1=C/NC(Cc1ccccc1)C(=O)O (stereo unspecified)
inactive: [1] > 100 µM | [2] > 100 µM | [3] > 100 µM | [4] > 100 µM | [5] > 100 µM | [6] > 100 µM | [7] > 100 µM | [8] > 100 µM | [9] > 100 µM | [10] > 100 µM | [11] > 100 µM | [12] > 100 µM | [13] > 100 µM | [14] 50.8 µM | [16] > 100 µM | [15] > 100 µM

CC1=CC(=O)CC2(C)CC[C@@H]3C[C@]12OC3(C)C (stereo partly specified)
inactive: [1] > 100 µM | [2] > 100 µM | [3] > 100 µM | [4] > 100 µM | [5] > 100 µM | [6] > 100 µM | [7] > 100 µM | [8] > 100 µM | [9] > 100 µM | [10] > 100 µM | [11] > 100 µM | [12] > 100 µM | [13] > 100 µM | [14] > 100 µM | [16] > 100 µM | [15] > 100 µM

N=C1NC(=O)N2CC12 (stereo unspecified) [IMEXON]
inactive: [1] > 100 µM | [2] > 100 µM | [3] > 100 µM | [4] > 100 µM | [5] 73.1 µM | [6] > 100 µM | [7] > 100 µM | [8] > 100 µM | [9] > 100 µM | [11] > 100 µM | [12] > 100 µM | [13] > 100 µM | [14] > 100 µM | [16] > 100 µM | [15] > 100 µM
